The numbers were not newly measured in patent US10640803B2, “Methods for determining chemosensitivity and chemotoxicity” (priority 2013, dated 2020), which cites them from elsewhere.

In the series the test system is CLL patients. The settings on record: caused the halt of the study.

SMILES strings stand for the structures.

For `CC1(C)CCC(c2ccc(Cl)cc2)=C(CN2CCN(c3ccc(C(=O)NS(=O)(=O)c4ccc(N[C@H](CCN5CCOCC5)CSc5ccccc5)c(S(=O)(=O)C(F)(F)F)c4)cc3)CC2)C1` [ABT-263], the “adverse event in the study” value is given as “occurrence of tumor lysis syndrome”.
